Assay results: paper PMC4330696, “Characterization of the serine acetyltransferase gene family of Vitis vinifera uncovers differences in regulation of OAS synthesis in woody plants” (Frontiers in Plant Science, 2015)

What was measured:
[1] = biological target: T1, VvSERAT2;1 (Vitis vinifera, UniProt F6HCV5); experiment: SERAT activity assay, titration with cysteine up to […]; assay type: biochemical; conditions: read-out: Cys Inhibition (IC50 mM)
T1 construct: gene VIT_00s0194g00120; N-terminal His tag (pET28a), E. coli; lacks predicted transit peptide (57 residues predicted); naturally lacks canonical C-terminal tail; free SERAT without OASTL
T1 sequence (F6HCV5 58-306): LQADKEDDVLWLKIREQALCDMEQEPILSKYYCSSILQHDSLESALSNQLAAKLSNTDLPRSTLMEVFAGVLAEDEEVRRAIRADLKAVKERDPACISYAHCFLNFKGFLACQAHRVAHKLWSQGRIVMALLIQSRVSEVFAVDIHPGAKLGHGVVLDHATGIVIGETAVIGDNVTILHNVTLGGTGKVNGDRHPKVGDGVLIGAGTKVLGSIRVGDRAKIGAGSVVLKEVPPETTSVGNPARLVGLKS

[2] = biological target: T2, AtOASTL-B (Arabidopsis thaliana, UniProt P47999); experiment: OASTL activity assay (Gaitonde); […]-1 pmol enzyme, turnover only; assay type: biochemical; conditions: co-substrate sulfide; control without SERAT
T2 construct: gene OASB; recombinant, expressed in E. coli (Wirtz et al. 2004)
T2 sequence (P47999 61-392): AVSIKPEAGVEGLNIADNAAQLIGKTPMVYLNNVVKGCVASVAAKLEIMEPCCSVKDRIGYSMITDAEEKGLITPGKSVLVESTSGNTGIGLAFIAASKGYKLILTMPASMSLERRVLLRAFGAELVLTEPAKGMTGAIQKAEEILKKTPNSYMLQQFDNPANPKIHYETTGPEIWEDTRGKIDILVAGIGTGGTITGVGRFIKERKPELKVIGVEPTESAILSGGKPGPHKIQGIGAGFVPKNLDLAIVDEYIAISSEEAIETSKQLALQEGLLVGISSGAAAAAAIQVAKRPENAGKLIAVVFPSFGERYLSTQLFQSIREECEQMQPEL

SMILES | IC50 [1] [mM] | OASTL activity [2]
N[C@@H](CS)C(=O)O [L-Cys] | 1.9 ± 0.56 | –
CC(=O)OC[C@H](N)C(=O)O [O-acetylserine] | – | Enzymatic activity of OASTL was determined according to Gaitonde
